Measured values: patent US8124412B2, “Method of culturing conifer somatic embryos using S(+)-abscisic acid” (Cellfor Inc., priority 2005, dated 2012)

Key:
[1] = system: loblolly pine somatic embryos, line 76; test: Loblolly pine somatic embryo maturation: plantable germinants per gram of tissue plated; format: cell-based, Pinus taeda (loblolly pine)
Description: The culture medium for loblolly pine was TX medium (see Table 1) with the following additives: Glutamine 2500 mg/L, casein hydrolysate 3000 mg/L, and pH 5.8. The following compounds were added into the basal medium for loblolly pine somatic embryo development at different stages:
1) Solid maintenance medium: 9 μM 2,4-D and 4.5 μM BA, gellan gum 0.3%, sucrose 1%, lactose 2%.
2) Liquid maintenance and bulking-up medium: 9 μM 2,4-D and 4.5 μM BA, 1% sucrose, 2% lactose.
3) Liquid pre-treatment medium: 1% sucrose, 2% lactose.
4) Preculture II medium. Lactose 2%, 1% sucrose
5) Solid maturation containing 1% gellan gum, and 2500 mg/L L-glutamine and 3000 mg/L casein hydrolysate, 3% sucrose. The maturation media contained different types of ABA and concentrations. S,R-ABA (98% purity) was tested at the previously determined optimum of 120 μM. S-ABA (90% purity) was tested at 60 μM and 120 μM. 0.3 grams of tissue were plated per petri-plate). Culture was for 18 weeks in the dark at room temperature. After, the embryos were desiccated for 1.5 hours in a stream of sterile air to a moisture content of less than 10%. Plates were stored at −28° C.
6) Germination. The filter papers with desiccated embryos attached were moved onto germination medium shown in Table 2, and cultured in the dark for 1 week then transferred to light. The numbers of germinants of suitable quality for planting were counted.

[2] = system: loblolly pine somatic embryos, line 76; test: Loblolly pine: S-ABA concentration in preculture II medium and maturation medium; format: cell-based, Pinus taeda (loblolly pine); conditions: S-ABA 95% purity, line 76 (FIG. 6)
Description: The effect of S-ABA (95% purity) was tested in the loblolly pine pre-culture II medium followed by maturation medium. Somatic embryos of line 76 were cultured as described above; however, ABA was added to the pre-culture medium and maturation medium in the following treatments: […]

[3] = system: loblolly pine germinants/seedlings, line 76; test: Loblolly pine merchantable miniplug seedlings in nursery after maturation treatments; format: in vivo, Pinus taeda (loblolly pine); conditions: line 76 (FIG. 5)
Description: The effect of the different kinds of ABA on the survival and vigour of germinants was investigated. The germinants were prepared as described above except that ABA in the maturation medium consisted of 95% and 98% purity S-ABA, which was used in the maturation medium at 60 and 120 μM concentration. The S,R-ABA (98% purity) was used at 60 and 120 μM concentration. Miniplug seedlings of merchantable quality were scored after 14 weeks in the nursery.

[4] = system: Douglas fir somatic embryos; test: Douglas fir somatic embryogenesis: maturation, germination and conversion after culture on S-ABA or S,R-ABA; format: cell-based, Pseudotsuga menziesii (Douglas fir)
Description: The culture medium used for Douglas fir was TX medium (see Table 1) with the following additives: glutamine 100 mg/L, casein hydrolysate 100 mg/L, and pH 5.8. The following compounds were added into the basal medium for Douglas fir somatic embryo development at different stages:
1) Solid maintenance medium: 9 μM 2,4-D and 4.5 μM BA, gellan gum 0.28%, sucrose 1%.
2) Liquid maintenance and bulking-up medium: 9 μM 2,4-D and 4.5 μM BA, different carbon sources for experiments.
3) Liquid pre-treatment medium: 20 (first week) or 30 μM ABA (second week), 10% PEG4000 (first week) or PEG1500 (second week), different carbon sources as described in examples below.
4) Solid maturation medium consisted of three media all with 0.02% NH4NO3 and the following:
Medium I. 40 μM ABA, 10% PEG 1500, maltose 2.5%, gellan gum 0.6%
Medium II. 60 μM ABA, 10% PEG1500, maltose 2.5% and sucrose 1%, gellan gum 0.8%
Medium III. 70 μM ABA, 6% PEG1500, sucrose 6%, gellan gum 1%.
The culture was kept in darkness at 23° C. Embryogenic tissue was sub-cultured once every two weeks onto solid maintenance medium. […]
5) Germination. The cultures were germinated at room temperature for 2 to 3 weeks on TX medium (Table 1), 0.5% gellan gum, 1 g/L NH4NO3 after which the germinants were hand selected and placed in low-light for 1 week and high-light for 7 weeks then planted in miniplugs and evaluated after 14 weeks.

| SMILES | optimum concentration in maturation medium ([1]; loblolly pine, S,R-ABA 98% purity, previously determined) [µM] | gradual increase in S-ABA compared to constant ABA throughout development ([2]; 45 μM S-ABA in pre-culture medium to 90 μM in maturation medium) | 90 μM S-ABA maturation medium compared to 120 μM S-ABA maturation medium [2] | mean % merchantable seedlings, rank among treatments ([3]; 60 μM 98% purity S-ABA, after 14 weeks in nursery) | merchantable seedlings, compared to the 60 μM S,R-ABA treatment ([3]; 120 μM S-ABA, after 14 weeks in nursery) | mean % merchantable seedlings, compared to the S,R-ABA treatments ([3]; all S-ABA treatments (95% and 98% purity, 60 and 120 μM), scored after 14 weeks in nursery) | effect on maturation frequencies ([4]; Douglas fir, S-ABA compared with S,R-ABA) | conversion of embryos, increase compared to S,R-ABA ([4]; one Douglas fir cell line with low conversion potential, embryos cultured on S-ABA vs S,R-ABA (FIG. 3)) [fold] | number of plantable germinants per gram of tissue plated, compared to 120 μM S,R-ABA ([1]; 60 μM S-ABA (90% purity) in maturation medium, loblolly line 76 (FIG. 4)) | number of plantable germinants, compared to 120 μM S,R-ABA ([1]; 120 μM S-ABA (90% purity) in maturation medium, loblolly line 76 (FIG. 4)) |
| --- | --- | --- | --- | --- | --- | --- | --- | --- | --- | --- |
| CC1=CC(=O)CC(C)(C)C1(O)/C=C/C(C)=C\C(=O)O (stereo not shown) [S,R-ABA, reference compound] | 120 | – | – | – | – | – | – | – | – | – |
| CC1=CC(=O)CC(C)(C)[C@@]1(O)/C=C/C(C)=C\C(=O)O (mixture of isomers) [S-ABA, (+)-cis,trans-Abscisic Acid] | – | superior | superior | significantly the is highest | more optimal | higher | similar | 2.5 | significantly higher | double |
